What was measured:
Cannabinoid receptor 2 = Cannabinoid receptor 2 (Homo sapiens, UniProt P34972)
Cannabinoid receptor 1 = Cannabinoid receptor 1 (Homo sapiens, UniProt P21554)
Sequence of Cannabinoid receptor 1 (P21554 whole entry): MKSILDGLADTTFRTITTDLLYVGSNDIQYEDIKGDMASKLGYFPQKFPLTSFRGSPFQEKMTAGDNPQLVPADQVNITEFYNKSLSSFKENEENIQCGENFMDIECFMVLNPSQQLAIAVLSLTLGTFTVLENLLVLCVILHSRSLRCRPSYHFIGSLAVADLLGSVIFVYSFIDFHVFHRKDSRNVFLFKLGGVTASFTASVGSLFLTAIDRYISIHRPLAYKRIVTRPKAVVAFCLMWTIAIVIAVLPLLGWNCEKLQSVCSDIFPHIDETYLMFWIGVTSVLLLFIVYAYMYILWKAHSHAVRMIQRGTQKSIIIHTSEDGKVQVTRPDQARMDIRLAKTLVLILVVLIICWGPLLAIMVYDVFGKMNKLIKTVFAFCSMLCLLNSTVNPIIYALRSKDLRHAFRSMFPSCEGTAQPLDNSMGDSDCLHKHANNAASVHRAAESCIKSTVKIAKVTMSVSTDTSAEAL

Sequence of Cannabinoid receptor 2 (P34972 whole entry): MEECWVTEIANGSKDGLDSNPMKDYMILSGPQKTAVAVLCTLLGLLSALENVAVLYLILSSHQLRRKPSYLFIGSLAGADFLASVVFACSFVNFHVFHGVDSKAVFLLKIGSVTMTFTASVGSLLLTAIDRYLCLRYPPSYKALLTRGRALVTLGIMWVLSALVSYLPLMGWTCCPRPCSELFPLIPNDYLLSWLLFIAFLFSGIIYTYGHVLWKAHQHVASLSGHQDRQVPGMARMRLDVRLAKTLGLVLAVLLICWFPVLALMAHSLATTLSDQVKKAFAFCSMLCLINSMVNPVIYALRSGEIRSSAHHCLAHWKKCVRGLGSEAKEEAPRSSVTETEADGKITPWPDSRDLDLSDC

**Q.** How did the Ki (Cannabinoid receptor 2) turn out when `O=S(=O)(CCCC(F)(F)F)Oc1cccc(Oc2ccc(O)c3c2CC(CO)=C3)c1` [KN 38-7271] was run?
**A.** The Ki was 5.96 nM.

**Q.** Which Ki (Cannabinoid receptor 1) does the source give for `CCCCCCC(C)(C)c1cc(O)c2c(c1)OC(C)(C)[C@@H]1CC=C(CO)CC21` (stereo partly drawn) [(R)-3-(1,1-Dimethyl-heptyl)-9-hydroxymethyl-6,6-dimethyl-6a,7,10,10a-tetrahydro-6H-benzo[c]chromen-1-ol] here?
**A.** Its Ki is 0.41 nM.
